Reference: US11109593B2, “Isoxazolin-5-one derivative and herbicide containing same as active ingredient” (HOKKO CHEMICAL INDUSTRY CO., LTD., priority 2017, dated 2021)

Tests used:
Type in all cases: in vivo
[1] = system: Echinochloa crus-galli; experiment: Test Example 1: herbicidal effect test by treatment of rice paddy soil (immediately after seeding); details: 120 g/10a active ingredient, dry weight vs untreated area, 14 days after treatment
How it was run: (§1)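 Values are herbicidal rates (%) derived from average plant dry weight in treated versus untreated pots 14 days after treatment, run in duplicate. Treatment was a water-diluted emulsion dropped into flooded paddy soil right after sowing, at 120 g active ingredient per 10 ares.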

[2] = system: Scirpus juncoides; experiment: as above; details: 120 g/10a active ingredient, dry weight vs untreated area, 14 days after treatment
How it was run: as §1

[3] = system: broad leaf weeds (Lindernia pyxidaria and Monochoria vaginalis); experiment: as above; details: 120 g/10a active ingredient, dry weight vs untreated area, 14 days after treatment
How it was run: as §1

[4] = system: Echinochloa crus-galli; experiment: Test Example 2: herbicidal effect test by treatment during growing period in paddy rice cultivation (seven days after seeding); details: 120 g/10a active ingredient, assessed 14 days after treatment, dry weight vs untreated area
How it was run: (§2)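 Herbicidal rate (%) = {1 − treated/untreated mean plant dry weight} × 100, assessed in duplicate 14 days post-treatment. Emulsion formulations were diluted in water and dropped onto flooded (about 3 cm) paddy pots 7 days after seeding, giving 120 g a.i. per 10 ares. Plants were grown in a glass greenhouse.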

[5] = system: Scirpus juncoides; experiment: as above; details: 120 g/10a active ingredient, assessed 14 days after treatment, dry weight vs untreated area
How it was run: as §2

[6] = system: broad leaf weeds (Lindernia pyxidaria and Monochoria vaginalis); experiment: as above; details: 120 g/10a active ingredient, assessed 14 days after treatment, dry weight vs untreated area
How it was run: as §2

[7] = system: Amaranthus viridis; experiment: Test Example 4: herbicidal effect test by treatment of leave and stem in dry field farming (seven days after seeding); details: 120 g/10a active ingredient; emulsion sprayed seven days after seeding; evaluated 14 days after treatment
How it was run: (§3)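 Duplicate pots were scored 14 days post-spray by dry weight, herbicidal rate = {1 − treated/untreated average dry weight} × 100. The water-diluted emulsion, equivalent to 120 g active ingredient per 10 ares in 100 L, was applied seven days after sowing 20 seeds each into the upper 1 cm of alluvial soil.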

[8] = system: Echinochloa crus-galli; experiment: as above; details: 120 g/10a active ingredient; emulsion sprayed seven days after seeding; evaluated 14 days after treatment
How it was run: as §3

[9] = system: Chenopodium album; experiment: as above; details: 120 g/10a active ingredient; emulsion sprayed seven days after seeding; evaluated 14 days after treatment
How it was run: as §3

[10] = system: southern crabgrass; experiment: as above; details: 120 g/10a active ingredient; emulsion sprayed seven days after seeding; evaluated 14 days after treatment
How it was run: as §3

[11] = system: Amaranthus viridis; experiment: Test Example 3: herbicidal effect test by treatment of dry field farming soil (one day after seeding); details: 120 g/10a active ingredient, evaluated 14 days after treatment
How it was run: (§4)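 Herbicidal rate (%) equals 1 minus treated/untreated mean plant dry weight, times 100, taken 14 days after treatment in duplicate pots. Emulsion diluted in water was applied at 100 L per 10 ares (120 g a.i. per 10 ares) one day after sowing 20 seeds per species into the top 1 cm of alluvial soil.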

[12] = system: Echinochloa crus-galli; experiment: as above; details: 120 g/10a active ingredient, evaluated 14 days after treatment
How it was run: as §4

[13] = system: Chenopodium album; experiment: as above; details: 120 g/10a active ingredient, evaluated 14 days after treatment
How it was run: as §4

[14] = system: southern crabgrass; experiment: as above; details: 120 g/10a active ingredient, evaluated 14 days after treatment
How it was run: as §4

Structure (SMILES)	Herbicidal rate (%) Echinochloa crus-galli [1] [%]	Herbicidal rate (%) Scirpus juncoides [2] [%]	Herbicidal rate (%) Lindernia pyxidaria [3] [%]	Herbicidal rate (%) Monochoria vaginalis [3] [%]	Herbicidal rate (%) Echinochloa crus-galli [4] [%]	Herbicidal rate (%) Scirpus juncoides [5] [%]	Herbicidal rate (%) Lindernia pyxidaria [6] [%]	Herbicidal rate (%) Monochoria vaginalis [6] [%]	herbicidal effect (herbicidal rate), Amaranthus viridis [7] [%]	herbicidal effect (herbicidal rate), Echinochloa crus-galli [8] [%]	herbicidal effect (herbicidal rate), Chenopodium album [9] [%]	herbicidal effect (herbicidal rate), southern crabgrass [10] [%]	herbicidal rate, Amaranthus viridis [11] [%]	herbicidal rate, Echinochloa crus-galli [12] [%]	herbicidal rate, Chenopodium album [13] [%]	herbicidal rate, southern crabgrass [14] [%]
CCCC(C)n1oc(=O)c(Cc2ccccc2N(C(=O)C(C)C)S(=O)(=O)C(F)(F)F)c1C (stereo not shown) [Compound 1-334]	100	90	70	80	100	90	70	70	60	90	60	90	50	90	40	70
C=CCOC(=O)N(c1ccccc1Cc1c(C)n(C(C)c2ccccc2)oc1=O)S(=O)(=O)C(F)(F)F (stereo not shown) [Compound 1-710]	90	90	90	90	90	90	90	90	40	90	40	90	90	90	90	90
CCCC(c1ccccc1)n1oc(=O)c(Cc2ccccc2N(S(=O)(=O)C(F)(F)F)S(=O)(=O)C(F)(F)F)c1C (stereo not shown) [Compound 1-1039]	90	90	90	80	100	80	70	80	40	90	40	90	0	90	0	90
Cc1c(Cc2ccccc2N(S(=O)(=O)C(F)(F)F)S(=O)(=O)C(F)(F)F)c(=O)on1C(c1ccccc1)C(C)C (stereo not shown) [Compound 1-1040]	100	90	100	90	100	70	60	60	50	90	40	90	100	100	80	100
CCC(C)n1oc(=O)c(Cc2ccccc2N(C(=O)OCc2ccccc2)S(=O)(=O)C(F)(F)F)c1C (single isomer, unassigned) [1-783 (TLC bottom)]	90	90	90	90	90	90	90	90	40	90	40	90	90	90	90	90
Cc1c(Cc2ccccc2N(C(=O)Cc2ccccc2)S(=O)(=O)C(F)(F)F)c(=O)on1C(C)(C)C [Compound 1-503]	90	90	90	90	90	90	90	90	40	90	40	90	90	90	90	90
CCCCC(C)n1oc(=O)c(Cc2ccccc2NS(=O)(=O)C(F)(F)F)c1C (stereo not shown) [Compound 1-120]	100	100	100	100	90	90	80	80	60	90	50	80	50	90	50	90
Cc1c(Cc2ccccc2N(S(C)(=O)=O)S(=O)(=O)C(F)(F)F)c(=O)on1CC(C)(C)C [Compound 1-893]	90	90	90	90	90	90	90	90	40	90	40	90	90	90	90	90
Cc1c(Cc2ccccc2N(C(=O)C2CC2)S(=O)(=O)C(F)(F)F)c(=O)on1CC(C)(C)C [Compound 1-407]	90	90	90	90	90	90	90	90	40	90	40	90	90	90	90	90
COCC(C)n1oc(=O)c(Cc2ccccc2N(C(C)=O)S(=O)(=O)C(F)(F)F)c1C (stereo not shown) [Compound 1-304]	90	90	90	90	90	90	90	90	40	90	40	90	90	90	90	90
